Experimental data reported in patent publication EP2216326B1, “Biologically acceptable choline compounds and their use as tensides” (Universität Regensburg, priority 2009, dated 2010).
Where two headings read alike, the source gives them in different places.

How the values were obtained:
HeLa-Zellen = test: MTT assay (Mosmann) cytotoxicity on HeLa cells; type: cell-based, human; details: 72 h at 37°C, at least 5 independent measurements, high values mean low toxicity
Description: (§1) Die Zytotoxizität und Hautverträglichkeit von ChDS im Vergleich zu anderen gängigen anionischen Tensiden wurden mittels in-vitro Tests an HeLa-Zellen (humane Gebärmutterhalskrebszellen) und SK-MHL 28 Zellen (humane Melanom-Zellen) getestet. Dieses etablierte in vitro Verfahren ist in N. Vlachy, D. Touraud, J. Heilmann, W. Kunz, Colloids and Surfaces B: Biointerfaces, 2009, 70, 278 - 280 beschrieben und bietet eine gute Alternative zu den in vivo Draize-Augenirritationstests.
(§2) Die Zellen wurden von der American Type Culture Collection (ATCC) zur Verfügung gestellt. Die Kultivierung der HeLa-Zellen erfolgte in Earle's minimum essential medium (MEM) mit 0.85 g/l Natriumhydrogencarbonat, zusätzlich versetzt mit fötalem Kälberserum (10%), L-Glutamin (2mM), nichtessentiellen Aminosäuren (1%), Amphotericin B ([…]) und Penicillin G/Streptomycin Sulfat (100u/ml). Die SK - MEL 28 - Zellen wurden in einer 1:1 Mischung aus Dulbecco's MEM mit 4.5 g/l Natriumhydrogencarbonat sowie LGlutamin und Pyrovat und HAM'S F-12 Medium mit 1.176 g/l Natriumhydrogencarbonat und stabilem Glutamin, versetzt mit 10% fötalem Kälberserum, kultiviert.
(§3) Die Inhibitionskonzentration an Testsubstanz, welche zu einer Reduktion an lebenden Zellen um 50% im Vergleich zu einer unbehandelten Kontrolle führt (IC 50), wurde via MTT-Assay nach Mosmann festgestellt.
(§4) Hierzu wurden in der ersten Spalte einer 96-Well-Platte je 15 µl an wässriger Testsubstanzlösung mit 135 µl Medium durchmischt. Je 75 µl dieser Mischung wurden abgenommen und in der zweiten Spalte mit 75 µl Medium verdünnt. Diese Prozedur wurde bis zur vollständigen Füllung der Platte von Spalte zu Spalte wiederholt. Anschließend wurden in jedem Well 11250 Zellen in 75 µl Medium angesät. Die so vorbereiteten Platten wurden 72 Stunden bei 37°C im Brutschrank aufbewahrt.
(§5) Danach wurden 15 µl MTT - Lösung zu jedem Well gegeben und für weitere 4 Stunden inkubiert. Im Anschluss wurde die überstehende Lösung abgetrennt und der reduzierte MTT-Bodensatz jeweils mit 150 µl 10%iger Natrumdodecylsulfat-Lösung versetzt. Nachdem die Platten über Nacht unter Lichtausschluss stehen gelassen wurden, wurde die Absorption der Lösungen bei 560 nm mittels einem TECAN Spectra Fluor Plus microplate reader bestimmt. Nach Mittelung an zwei Einzelmessungen konnte aus den sich ergebenden Dosis-Wirkungskurven der entsprechende IC 50 Wert errechnet werden. Angegebene Werte der Inhibitionskonzentration errechnen sich aus mindestens 5 unabhängigen Messungen.

SK-MEL 28-Zellen = test: MTT assay (Mosmann) cytotoxicity on SK-MEL 28 cells; type: cell-based, human; details: 72 h at 37°C, at least 5 independent measurements, high values mean low toxicity
Description: as §1, §2, §3, §4, §5

[1] = cited from earlier work; for TKr (Krafft-Temperatur): literature values of comparison substances, references (1)-(3); for Löslichkeitstemperatur in Wasser: water, literature or background statement
[2] = Krafft temperature (solubility temperature of a 1 wt% aqueous solution) by turbidity measurement, with and without added salt; type: physicochemical
Description: Als Maß für die Löslichkeit und Salzempfindlichkeit wurden die Krafft-Punkte in Abwesenheit von Salzen sowie bei unterschiedlichen Salzkonzentrationen herangezogen.
Allgemein kann die Krafft-Temperatur eines Tensids als die Löslichkeitstemperatur einer 1 Gew. %igen Lösung definiert werden, da die CMC generell weit unterhalb dieser Konzentration liegt (R. G. Laughlin, The Aqueous Phase Behavior of Surfactants, Academic Press, San Diego, 1994, p. 108). Dementsprechend wurde zur Bestimmung der Krafft-Temperatur von ChDS eine 1 gew. - %ige Lösung eingewogen. Zur Untersuchung des Einflusses von Salzen auf den Krafft-Punkt wurden 1 gew% - igen Lösungen von ChDS verschiedene Mengen an Natriumchlorid (Merck, p.a.) bzw. Cholinchlorid (Sigma-Aldrich, min. 98%) zugesetzt und die zugehörige Löslichkeitstemperatur gemessen.
Präzise Löslichkeitstemperaturen wurden aus Trübungsmessungen gemäß des in S. Schrödle, R. Buchner, W. Kunz, Fluid Phase Equilib., 2004, 216, 175-182 beschriebenen Verfahrens erhalten. Hierzu wurden alle untersuchten Proben bis zum Auftreten eines Niederschlags abgekühlt und anschließend mit einer Rate von 5°C pro Stunde wieder aufgeheizt.
Die Salzempfindlichkeit wurde durch Messung der Krafft-Temperatur bei unterschiedlichen Salzkonzentrationen untersucht.

[3] = Surface tension of aqueous surfactant solutions, ring method (Krüss Tensiometer K100); type: physicochemical; details: 25°C, aqueous solution, value reached starting from ca. 70 mN/m for water (Figur 3)
Experimental: Die Herabsetzung der Grenzflächenspannung von Wasser durch Zugabe an Tensid ist ein wichtiges Maß für die Effizienz eines Tensids. Die Oberflächenspannung von wässrigen ChDS- und SDS- Lösungen wurde anhand der Ringmethode mit einem Krüss Tensiometer K100 vermessen. Figur 3 zeigt die gemessene Grenzflächenspannung bei einer Temperatur von 25°C in Abhängigkeit von der Konzentration.

[4] = Solubility in organic solvents; type: physicochemical; details: Chloroform, Aceton, Acetonitril or Dimethylsulfoxid
Ratten-Gliom-Zellen = details: rat glioma cells, cited from earlier work

CCCCCCCCCCCC(=O)O [ChCl2, Cholinlaurat]
IC50 (HeLa-Zellen): 305 ± 6 µM
IC50 (SK-MEL 28-Zellen): 360 ± 10 µM
TKr (Krafft-Temperatur) [1]: <0°C^(3)

CCCCCCCCCCCCOS(=O)(=O)O [ChDS, Cholindodecylsulfat]
IC50 (HeLa-Zellen; Homo sapiens, HeLa, 72 h): 404 ± 4 µM
IC50 (SK-MEL 28-Zellen; Homo sapiens, SK-MEL-28, 72 h): 430 ± 20 µM
TKr (Krafft-Temperatur) ([2]; 1 wt% aqueous solution, no salt, turbidity measurement): 0 °C
Anstieg der Krafft-Temperatur ([2]; NaCl:surfactant ratio of 1:1, 1 wt% solution (Figur 1, Figur 2)): ~7 °C
in Wasser löslich bis (Temperatur) ([2]; water, found by the applicant): < 0 °C
Grenzflächenspannung von Wasser [3]: ca. 37 mN/m
Löslichkeit in organischen Lösungsmitteln [4]: gut löslich

C[N+](C)(C)CCO [Cholin, (2-Hydroxyethyl)trimethylammonium]
Toxizität geringer im Vergleich zu Tetramethylammonium (TMA), Faktor (Ratten-Gliom-Zellen; factor of lower toxicity versus TMA): 5,5
Toxizität geringer im Vergleich zu Tetrabutylammonium, -fach (Ratten-Gliom-Zellen; fold lower toxicity versus tetrabutylammonium): > 500

CCCCCCCCCCCC(=O)O [KC12, Kaliumlaurat]
IC50 (HeLa-Zellen; Homo sapiens, HeLa, 72 h): 234 ± 5 µM
IC50 (SK-MEL 28-Zellen; Homo sapiens, SK-MEL-28, 72 h): 400 ± 10 µM
TKr (Krafft-Temperatur) [1]: 10°C^(3)

CCCCCCCCCCCCOS(=O)(=O)O [KDS, Kaliumdodecylsulfat]
TKr (Krafft-Temperatur) [1]: 40°C^(1)

CCCCCCCCCCCC(=O)O [NaCl2, Natriumlaurat]
IC50 (HeLa-Zellen): 230 ± 10 µM
IC50 (SK-MEL 28-Zellen): 420 ± 10 µM
TKr (Krafft-Temperatur) [1]: 25°C^(2)

CCCCCCCCCCCCOS(=O)(=O)O [SDS, Natriumdodecylsulfat]
IC50 (HeLa-Zellen): 270 ± 10 µM
IC50 (SK-MEL 28-Zellen): 320 ± 30 µM
Grenzflächenspannung von Wasser [3]: ca. 36 mN/m
Löslichkeit in organischen Lösungsmitteln [4]: nur geringe Löslichkeit
TKr (Krafft-Temperatur) [1]: 16°C^(1)
Löslichkeitstemperatur in Wasser [1]: 12-25 °C

CCCCCCCCCCCCOS(=O)(=O)O [Tetramethylammoniumdodecylsulfat]
Löslichkeitstemperatur in Wasser [1]: < 0 °C
